Results published in paper PMC6991140 (Journal of the American Chemical Society, 2017).

Molecular target: T1, asialoglycoprotein receptor (ASGPR) (Homo sapiens, UniProt P07306)
T1 sequence (P07306 1-291): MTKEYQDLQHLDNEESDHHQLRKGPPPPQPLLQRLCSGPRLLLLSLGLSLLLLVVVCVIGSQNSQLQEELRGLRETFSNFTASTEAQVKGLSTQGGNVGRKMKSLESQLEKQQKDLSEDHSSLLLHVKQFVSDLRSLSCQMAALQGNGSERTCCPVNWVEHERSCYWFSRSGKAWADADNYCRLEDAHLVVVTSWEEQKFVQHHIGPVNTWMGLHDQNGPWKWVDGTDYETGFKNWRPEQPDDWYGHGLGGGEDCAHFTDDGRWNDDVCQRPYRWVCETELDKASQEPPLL
Assay: Surface plasmon resonance binding to immobilized ASGPR
Conditions: calculated from 1/Kads

- calculated ligand efficiency (LE): 0.41
SMILES: CC(=O)N[C@H]1C(O)O[C@H](CO)[C@H](O)[C@@H]1O (mixture of isomers) [GalNAc, N-acetylgalactosamine]
